The values that follow come from patent US9023803B2, “Cancer therapy based on tumor associated antigens derived from cyclin D1” (Immatics Biotechnologies GmbH, priority 2010, dated 2015).

The target of one assay is HLA A*0201 (Homo sapiens, UniProt P04439, D140Y/D185E/D98H/E176V/E277Q/G131W/G231S/I119V/I121R/I166T/I218V/L300P/L318F/N151K/N90K/P208A/P217A/Q86G/Q94H/R138H/R169H/T345S). Kind of assay: ELISA-based HLA binding method (Sylvester-Hvid et al., 2002). A general note: An ELISA detects its analyte on a solid surface through an enzyme-linked reagent.
A further assay relates to patients. Briefly: Clinical study of vaccine IMA901 with or without prior cyclophosphamide. It is filed as in vivo, human. From the text: (§1) Some patients received a prior TKI therapy with sunitinib or sorafenib, others a prior cytokine therapy with interferon or interleukin.
Both patient groups were followed up for progression-free survival (PFS) and overall survival (OS).

The test system of another assay is cancer patients. Kind of assay: Prevaccination T cell responses in cancer patients. It is filed as in vivo, human. The following applies: certain cancer patients. From the text: A further aspect of the invention then relates to the use of the peptide or combination according to the invention as a diagnostic tool in the diagnosis of cancer. Basically, the presence of the peptides or a combination thereof in the patient indicates cancer. […] Again, for the diagnosis, the peptides can be labeled. Furthermore, antibodies against the peptides (or combinations) can also be used. The diagnosis can be performed in vivo or in vitro.

For assay [1], the system named is HLA-A*02 positive tumor cells endogenously expressing Cyclin D1. The following applies: allo-restricted T cells of HLA-A2-negative donors; cited from earlier work.
The subject of another assay is CTL. The conditions noted are these: HLA-A2+ healthy donors, colon cancer and mantle cell lymphoma patients; CD40-activated B cells as APCs; cited from earlier work.
In the next assay the test system is HLA-A*68. Briefly: HLA-restriction: binding to HLA-A*68. Further details: species or system human.
The subject of the next assay is regulatory T cells. The conditions noted are these: low-dose cyclophosphamide 300 mg/m^2 single infusion before vaccination.
Excerpt: Absolute counts are shown in (A), percent change from baseline is shown in (B).
as §1

Another assay has as its system HLA-A*02. Briefly: HLA-restriction: binding to HLA-A*02. Further details: species or system human.
The next assay deals with HLA-A*26. Kind of assay: HLA-restriction: binding to HLA-A*26. Details: species or system human.
The subject of another assay is HLA class-II. Briefly: HLA-restriction: binding to HLA class-II. Further details: species or system human.

“LLGATCMFV (listed as Homo sapiens) [CCN-001, cyclin D1-derived peptide, aa 101-109]”: the “binding to HLA A*0201” value in the assay with HLA A*0201 is “Good binding”. Also, the “survival of patients responding against CCN-001 versus non-CCN-001-responding patients” value with patients (all vaccinated patients) was “significant longer survival”. Moreover, the “favorable effect of T cell response against CCN-001 on survival” value with patients (patient group pretreated with cyclophosphamide) is given as “even more evident”. Further, the prevaccination responses result in the assay with cancer patients is on record as “found”. In addition, the “lysis of Cyclin D1 expressing HLA-A*02 positive tumor cells by T cell clones recognizing the peptide” value in [1] is recorded as “could lyze”. Also, the “generation of CTL specific for the epitope” value in the assay on CTL was “could be generated”.

Consider ETIPLTAEKL [CCN-006], for which the “binding to HLA-A*68” value in the assay on HLA-A*68 is recorded as “seems to be a HLA-A*68 binder”.

With “YLSGANLNL (listed as Homo sapiens) [CEA-004]”, the prevaccination responses result with cancer patients is reported as “found”.

Regarding `O=P1(N(CCCl)CCCl)NCCCO1` (stereo not drawn) [cyclophosphamide, reference compound], the “outcome of the treatment using the vaccine after prior low-dose cyclophosphamide” value with patients (single infusion 300 mg/m^2 before IMA901) is “significantly improved”. The “number of regulatory T cells” value in the assay with regulatory T cells is given as “reduced”.

Take “ALLESSLRQA (listed as Homo sapiens) [CCN-007, cyclin D1-derived peptide, aa 253-262]”: the “binding to HLA-A*02” value in the assay on HLA-A*02 is reported as “moderate binder”.

For “EVFPLAMNY (listed as Homo sapiens) [CCN-004, cyclin D1-derived peptide, aa 76-84]”, the “binding to HLA-A*26” value in the assay on HLA-A*26 was “high binding”. Moreover, the “binding to HLA-A*02” value in the assay on HLA-A*02 was “practically no binding”.

Regarding “NPPSMVAAGSVVAAV (listed as Homo sapiens) [CCN-003, cyclin D1-derived peptide, aa 198-212]”, in the assay with HLA class-II, the HLA restriction entry was “DRB1*0401 restricted” and the “binding to HLA class-II” value is recorded as “binds”.
